Assay results reported in patent US20230134986A1, “GLUCOSE TRIPTOLIDE CONJUGATES AND USES THEREOF” (The Johns Hopkins University, priority 2020, published 2023).

Key:
Type in all cases: cell-based, human
[1] = system: RPB1 (catalytic subunit of RNAPII); assay: RPB1 (RNAPII) degradation in HeLa cells, immunostaining and western blot; parameters: endogenous RNAPII (RPB1) level: unit of the concentration uncertain; details: 1 (unit uncertain) compound 1, 24 h
Experimental: Western blot analysis. Whole cell lysates were prepared by adding lysis buffer [4% SDS, 20% glycerol, 10% 2-mercaptoethanol, 0.004% bromophenol blue, 0.125 M Tris-HCl (pH 6.8)] to the cell pellets for 30 minutes in ice followed by centrifugation at 12,000×g for 10 minutes then boiling for 5 minutes. For isolation of cytosolic and mitochondrial fractions of cytochrome C, cell pellets were resuspended in CLAMI buffer (250 mM sucrose, 70 mM KCl, […] digitonin in 1×PBS, protease inhibitor cocktail (1 tablet/10 ml CLAMI buffer)) then incubated on ice for 5 minutes. After centrifugation at 12,000×g for 5 minutes at 4° C., supernatant (cytoplasmic fraction) was collected and the pellet resuspended in lysis buffer as described above. Proteins were then separated by SDS-PAGE and transferred to nitrocellulose membranes (Bio-Rad). After blocking at room temperature for 1 h, membranes were incubated at 4′C overnight with the primary antibodies including anti-Rpb1 (Santa Cruz Biotechnology), anti-XPB (Biotechne), anti-Actin (Developmental Studies Hybridoma Bank), anti-GAPDH (Santa Cruz Biotechnology), anti-cytochrome C (Santa Cruz Biotechnology), anti-PARP1 (Santa Cruz Biotechnology), anti-cleaved caspase 3 (Cell Signaling Technology), anti-VDAC (ProteinTech), anti-HIF-1[…] (BD sciences), and anti-GLUT1 (Santa Cruz Biotechnology) antibodies followed by incubation with horseradish peroxidase-conjugated anti-mouse or anti-rabbit IgG (GE Healthcare) at room temperature for 2 hours. Antibody-protein complexes were detected using enhanced chemiluminescence (ECL) immunoblotting detection reagent (EMD Millipore).
Immunocytochemistry and cytochemistry. […] Glucose uptake was monitored by incubating cells in 200 μM 2-NBDG (ThermoFisher) for 6 hours prior to fixation. Fluorescence was observed under the Nikon Eclipse TE200 Inverted microscope (Nikon Instruments Inc., Melville, N.Y., USA). […] Rpb1 levels were measured using the MEASURE feature of ImageJ where all the background signals were subtracted from the intergrated density of nuclear Rpb1.

[2] = system: T7115 (C342T XPB knock-in HEK293T cells); assay: Proliferation of XPB C342T knock-in cell line T7115 ([3H]-thymidine incorporation); details: C342T XPB knock-in versus isogenic WT 293T
Text: Cells and culture conditions. Primary astrocytes (Lonza, Walkersville, Md.; ABM™ Basal Media with AGM™ SingleQuots™ Supplement Pack), fibroblast (ATCC; Fibroblast Basal Medium (ATCC© PCS-201-030™) with Fibroblast Growth Kit-Serum-free (ATCC© PCS-201-040™)), airway epithelial cell (ATCC; Airway Epithelial Cell Basal Medium (ATCC© PCS-300-030™) with Bronchial Epithelial Cell Growth Kit (ATCC© PCS-300-040™)), renal proximal tubule (ATCC; Renal Epithelial Cell Basal Medium (ATCC© PCS-400-030™) with Renal Epithelial Cell Growth Kit (ATCC© PCS-400-040™)), prostate epithelial cell (Lonza; PrEGM™ BulletKit™) and mammary epithelial cell (Lonza; MEBM™ BulletKit™) were kept in a humidified incubator at 37° C. adjusted to 5% CO2. […]

MCF-7 = MCF-7 proliferation under hypoxia ([3H]-thymidine incorporation); details: MCF-7, 1% O2, 48 h post treatment

CC(C)[C@]12O[C@H]1[C@@H]1O[C@]13[C@]1(O[C@H]1C[C@H]1C4=C(CC[C@@]13C)C(=O)OC4)[C@@H]2OC(=O)CCCO[C@@H]1OC(CO)[C@@H](O)C(O)C1O (stereo in doubt) [Compound 1]
endogenous RNAPII (RPB1) level [1]: depletes endogenous RNA polymerase II
sensitivity of T7115 mutant line (proliferation) [2]: resistant
effect of hypoxia on anti-proliferative effect (MCF-7): modest enhancement
